Assay [1] relates to JAK1-dependent STAT6 phosphorylation downstream of IL-13 stimulation in BEAS-2B cells. Put plainly: JAK1 pathway assay in cell lines: IL-13 p-STAT6 BEAS-2B. Format: cell-based. The note with it: BEAS-2B human bronchial epithelial cells, 1 hr compound, IL-13 15 min, MSD readout. Put shortly: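 Phospho-STAT6 read by MSD electrochemiluminescence in lysates of BEAS-2B cells kept in complete growth medium. Cells were pretreated 1 hr at 37 °C with compound (0.2% DMSO final) and stimulated 15 min with IL-13 at its EC90; EC50 is the concentration halving signal versus DMSO.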

The target in assay [2] is T1, isolated recombinant JAK2 kinase domain (Homo sapiens, UniProt O60674).
T1 construct: isolated recombinant JAK1 and JAK2 kinase domain
Put plainly: JAK enzyme assay, JAK2 kinase domain (Caliper LabChip). Format: biochemical. The note with it: 0.2 nM JAK2, ATP 25 μM, Morrison tight binding model. Put shortly: (§1)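 Ki values were obtained by Morrison tight-binding analysis with ATP-competitive correction, Ki=Ki,app/(1+[ATP]/Km,app). Phosphorylated versus total fluorescent JAK3-derived peptide was quantified on a Caliper LabChip. Kinase reactions with the isolated recombinant domains ran 30 min at 22 °C before EDTA quench (50 mM final).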

The target in assay [3] is T2, isolated recombinant JAK1 kinase domain (Homo sapiens, UniProt P23458).
T2 construct: isolated recombinant JAK1 and JAK2 kinase domain
In words: JAK enzyme assay, JAK1 kinase domain (Caliper LabChip). The settings on record: 1.5 nM JAK1, ATP 25 μM, Morrison tight binding model. Format: biochemical. Put shortly: as §1

T1 sequence (O60674 849-1124 limits assumed): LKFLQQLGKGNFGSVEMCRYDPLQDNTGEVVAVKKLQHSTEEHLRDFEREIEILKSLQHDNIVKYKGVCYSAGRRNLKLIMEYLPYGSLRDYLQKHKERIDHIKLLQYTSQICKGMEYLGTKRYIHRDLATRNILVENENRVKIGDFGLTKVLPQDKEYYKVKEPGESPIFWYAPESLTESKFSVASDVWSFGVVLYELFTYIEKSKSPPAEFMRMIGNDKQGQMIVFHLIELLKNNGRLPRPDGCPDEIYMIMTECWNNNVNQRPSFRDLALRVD
T2 sequence (P23458 875-1153 limits assumed): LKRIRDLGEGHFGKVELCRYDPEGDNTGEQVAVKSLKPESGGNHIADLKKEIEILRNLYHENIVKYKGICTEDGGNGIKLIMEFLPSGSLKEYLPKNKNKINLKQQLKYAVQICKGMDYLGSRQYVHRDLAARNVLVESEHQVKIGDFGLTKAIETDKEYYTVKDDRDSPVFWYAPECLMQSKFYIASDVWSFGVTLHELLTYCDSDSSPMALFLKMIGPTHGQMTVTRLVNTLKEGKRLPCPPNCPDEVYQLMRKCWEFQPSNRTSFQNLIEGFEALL

On to `CN(CC(C)(C)C#N)C1CCN(C(=O)Cn2cc(Nc3nc4c(N5CC(CC#N)(n6cc(C(F)(F)F)cn6)C5)cccn4n3)cn2)CC1` [Example 108, 3-[[1-[2-[4-[[8-[3-(cyanomethyl)-3-[4-(trifluoromethyl)pyrazol-1-yl]azetidin-1-yl]-[1,2,4]triazolo[1,5-a]pyridin-2-yl]amino]pyrazol-1-yl]acetyl]-4-piperidyl]-methyl-amino]-2,2-dimethyl-propanenitrile;formic acid], for which a half-maximal effect in assay [1] (EC50) was put at 37 nM. Also, the values for the Ki in assay [2] and in assay [3] were 0.4 nM and 0.6 nM, respectively.

In turn, `CN(CC1(C#N)CC1)C1CCN(C(=O)Cn2cc(Nc3nc4c(N5CC(CC#N)(n6cc(C(F)(F)F)cn6)C5)cccn4n3)cn2)CC1` [Example 109, 1-[[[1-[2-[4-[[8-[3-(cyanomethyl)-3-[4-(trifluoromethyl)pyrazol-1-yl]azetidin-1-yl]-[1,2,4]triazolo[1,5-a]pyridin-2-yl]amino]pyrazol-1-yl]acetyl]-4-piperidyl]-methyl-amino]methyl]cyclopropane carbonitrile] yielded an EC50 in assay [1] of 58 nM. The results for the Ki in assay [2] and in assay [3] were 0.4 nM and 0.5 nM, respectively.

The compound `CN1CCN(C(=O)c2cccc(Nc3nc4c(N5CC(CC#N)(n6cc(C(F)(F)F)cn6)C5)cccn4n3)c2)CC1` [Example 110, formic acid;2-[1-[2-[3-(4-methylpiperazine-1-carbonyl)anilino]-[1,2,4]triazolo[1,5-a]pyridin-8-yl]-3-[4-(trifluoromethyl)pyrazol-1-yl]azetidin-3-yl]acetonitrile] returned an EC50 in assay [1] of 100 nM. The Ki in assay [2] came to 0.9 nM; in assay [3] it was 0.8 nM.

For `CN1CCN(C(=O)c2cc(Nc3nc4c(N5CC(CC#N)(n6cc(C(F)(F)F)cn6)C5)cccn4n3)ccn2)CC1` [Example 111, 2-[1-[2-[[2-(4-methylpiperazine-1-carbonyl)-4-pyridyl]amino]-[1,2,4]triazolo[1,5-a]pyridin-8-yl]-3-[4-(trifluoromethyl)pyrazol-1-yl]azetidin-3-yl]acetonitrile], the EC50 in assay [1] turned out to be 39 nM. The Ki in assay [2] was found to be 0.4 nM; in assay [3], 0.7 nM.

Compound `N#CCC1(n2cc(C(F)(F)F)cn2)CN(c2cccn3nc(Nc4cccc(C(=O)N5CCC(N6CCOCC6)CC5)c4)nc23)C1` [Example 112, formic acid;2-[1-[2-[3-(4-morpholinopiperidine-1-carbonyl)anilino]-[1,2,4]triazolo[1,5-a]pyridin-8-yl]-3-[4-(trifluoromethyl)pyrazol-1-yl]azetidin-3-yl]acetonitrile] had an EC50 in assay [1] of 69 nM. Moreover, the results for the Ki in assay [2] and in assay [3] were 4.6 nM and 1 nM, respectively.

`CN1CCN(C(=O)c2ccc(Nc3nc4c(N5CC(CC#N)(n6cc(C7CCOCC7)cn6)C5)cccn4n3)cc2)CC1` [Example 113, 2-[1-[2-[4-(4-methylpiperazine-1-carbonyl)anilino]-[1,2,4]triazolo[1,5-a]pyridin-8-yl]-3-(4-tetrahydropyran-4-ylpyrazol-1-yl)azetidin-3-yl]acetonitrile] showed an EC50 in assay [1] of 43 nM. Also, the values for the inhibition constant Ki in assay [2] and in assay [3] were 0.6 nM and 0.4 nM, respectively.

In turn, `Cc1nn(C2(CC#N)CN(c3cccn4nc(Nc5cnn(CC(=O)N6CCN(C)CC6)c5)nc34)C2)cc1-c1ccccc1` [Example 114, formic acid;2-[3-(3-methyl-4-phenyl-pyrazol-1-yl)-1-[2-[[1-[2-(4-methylpiperazin-1-yl)-2-oxo-ethyl]pyrazol-4-yl]amino]-[1,2,4]triazolo[1,5-a]pyridin-8-yl]azetidin-3-yl]acetonitrile] had an EC50 in assay [1] of 16 nM. Also, the Ki in assay [2] and in assay [3] was 0.3 nM in each case.

`N#CCC1(n2cc(C(F)(F)F)cn2)CN(c2cccn3nc(Nc4ccc(CC(=O)N5CCN(C6COC6)CC5)cc4)nc23)C1` [Example 115, 2-[1-[2-[4-[2-[4-(oxetan-3-yl)piperazin-1-yl]-2-oxo-ethyl]anilino]-[1,2,4]triazolo[1,5-a]pyridin-8-yl]-3-[4-(trifluoromethyl)pyrazol-1-yl]azetidin-3-yl]acetonitrile]: the response in assay [1] was half-maximal at 139 nM (EC50). In addition, the Ki in assay [2] turned out to be 22.9 nM; in assay [3] it was 2.4 nM.

For the origin of these results see patent US20230242530A1, “8-(AZETIDIN-1-YL)-[1,2,4]TRIAZOLO[1,5-A]PYRIDINYL COMPOUNDS, COMPOSITIONS AND METHODS OF USE THEREOF” (Genentech, Inc., priority 2016, published 2023).
